Where only a bound is given, the exact number is not on record here.

Broadly, the IC50 is the midpoint of a concentration-inhibition curve.

Data set [1] has as its system P. falciparum W2 clone (CQ-resistant and mefloquine-sensitive). The data set can be described thus: 3H hypoxanthine incorporation, W2 clone. The data set is classed as cell-based. Conditions: Plasmodium falciparum. The text has this:
(§1) Human erythrocytes (A^+) and serum blood group A+ were kindly donated by Center of Hemotherapy and Hemathology of Minas Gerais (HEMOMINAS). Immediately before the tests, ring stage-parasites were synchronized in sorbitol. Synchronized parasites were stained with orange green in pre-dried coverslips then immediately examined under a fluorescent microscope. The suspension was adjusted for parasitemia and hematocrit as described below for each test. The infected red blood cells were distributed in a 96-well microtiter plate (Corning, Santa Clara, CA, EUA) at 180 µL/well, in which 20 µL of the test drugs and controls were previously diluted at different concentrations (400-0.625 ng/mL) in 0.005% DMSO (v/v) (Sigma, USA).
(§2) The [^3H]-hypoxanthine assay was performed at 1% parasitemia and 1% hematocrit and the level of isotope incorporation was read in a beta-counter (PerkinElmer, Waltham, MA, EUA). The anti-HRPII test was performed at 0.05% parasitemia and 1.5% hematocrit and the HRPII quantification was read at 450 nm in a spectrophotometer (SpectraMax340PC^384, Molecular Devices). […] Curve-fitting was performed using Origin 8.0 software (OriginLab Corporation, Northampton, MA, USA).

Data set [2] has the same test system. The data set can be described thus: ELISA anti-HRPII assay, W2 clone. The data set is classed as cell-based. Conditions: Plasmodium falciparum.
From the text: as §1, §2
For orientation: An ELISA detects its analyte on a solid surface through an enzyme-linked reagent.

The test system of data set [3] is P. falciparum 3D7 strain (CQ-sensitive). The data set can be described thus: ELISA anti-HRPII assay, 3D7 strain. The note with it: Plasmodium falciparum. The format is cell-based.
From the text: as §1, §2

Data set [4] shares this test system. The data set can be described thus: 3H hypoxanthine incorporation, 3D7 strain. The data set is classed as cell-based. The note with it: Plasmodium falciparum.
From the text: as §1, §2

In another data set the test system is P. berghei, NK65 strain. The data set is described as follows: Suppressive parasite growth test in P. berghei infected mice. The note with it: for Time of survival / Percent reduction of parasitemia, day 5 / Percent reduction of parasitemia, day 8 / Percent reduction of parasitemia, day 10: three consecutive days; for Percent reduction of parasitemia, day 5: day 5 post-infection; for Percent reduction of parasitemia, day 8: day 8 post-infection; for Percent reduction of parasitemia, day 10: day 10 post-infection. The format is in vivo. How it is done: A suppressive parasite growth test was used with P. berghei, NK65 strain (originally received from the New York University Medical School) infected mice as described previously with some modifications. Briefly, adult Swiss outbred mice (20±2 g weigh) were inoculated with 1×10^5 red blood cells infected with P. berghei, by intraperitoneal route. The infected mice were maintained together for at least 2 h and then divided randomly into groups of 3–5 animals per cage, which were subsequently treated with 25 and 50 mg/kg of each compound diluted in DMSO 3% (v/v) given daily by oral gavage for three consecutive days. […] Blood smears from mouse tails were prepared on days 5, 8 and 10 post-infection and then methanol-fixed, stained with Giemsa and examined microscopically.

Data set [5] has as its system human hepatoma cell line (HepG2). The data set can be described thus: Cytotoxicity by MTT assay, HepG2 cells. The data set is classed as cell-based. As for the experimental part:
(§3) The human hepatoma cell line (HepG2) was originally received from the New University of Lisbon, and the monkey kidney cell line (BGM) from the Federal University of Minas Gerais. […] For the in vitro tests, a confluent cell monolayer was trypsinized, washed with culture medium, distributed in a flat-bottomed 96-well plate (5×10^3 cells/well) and incubated for 18 h at 37°C to ensure cell adherence.
(§4) The cytotoxicity was evaluated with the MTT assay, 3-(4,5-Dimethylthiazol-2-yl)-2,5-diphenyltetrazolium bromide. Briefly, the HepG2 and BGM cell lines were incubated with 20 µL of the compounds at different concentrations (1000-1 µg/mL) for 24 h in a 5% CO2 and air atmosphere at 37°C. For the MTT assay, which evaluates mitochondrial viability, 20 µL of MTT solution (5 mg/mL) were added and the plates were incubated for a further 3 h. After incubation, the supernatant was carefully removed from the wells, followed by the addition of 100 µL DMSO with thorough mixing.
(§5) The neutral red assay was used to evaluate cell viability by the accumulation of dye in the viable cell lysosome. […] Cell viability was expressed as the percentage of control absorbance obtained in untreated cells after subtracting the absorbance of the appropriate background. Lastly, the minimum lethal dose for 50% of the cells (MLD50) was determined as previously described.
(Formazan colour is commonly taken as a measure of viable cells.)

The subject of data set [6] is monkey kidney cell line (BGM). The data set can be described thus: Cytotoxicity by MTT assay, BGM cells. The format is cell-based. As for the experimental part:
as §3, §4, §5

The next data set relates to hemozoin formation. The data set can be described thus: Inhibition of hemozoin assay. The format is biochemical. Conditions: dose-dependent; p<0.05 vs drug-free controls; two experiments in triplicate. How it is done:
The hemozoin inhibition assay was performed as described by Ncokazi et al., (2002) with some modifications. Briefly, 10.1 µL of the aminoquinoline derivatives at different concentrations (40-0.62 mg/mL) and 101.2 µL of the hematin stock solution (1.68 mM in 0.1 M NaOH) were combined in triplicate in a flat-bottomed 96-well plate. The solutions were further mixed and 58.7 µL of acetate solution (12.9 M, pH 5.0) then added to each well. After incubation at 60°C, 80 µL of 30% (v/v) pyridine solution in 20 mM HEPES, pH 7.5, were added at room temperature. The solids formed were resuspended and allowed to settle for 15 min at room temperature. Then, 38 µL of the supernatant were transferred to a new plate and diluted to 250 µL with a 30% (v/v) pyridine solution (20 mM HEPES, pH 7.5). The color reaction was read in a spectophometer at 405 nm and the results were expressed as the concentration of free heme in each well, which was calculated from the standard absorbance curve of a known hemin solution. CQ was used as a positive control and the cut off was determined by the amount of free heme in the drug-free control. Each compound was evaluated in two different experiments.

On to `CCN(CC)CCCC(C)Nc1ccnc2cc(Cl)ccc12` (stereo not shown) [CQ, Chloroquine], for which, in data set [1] (W2, read-out: IC50 Hypoxanthine, W2 (CQ resistant)), the IC50 turned out to be 180 nM. For the same compound, the half-maximal inhibitory concentration (IC50) in data set [2] (W2, read-out: IC50 HRPII, W2 (CQ resistant)) was found to be 120 nM. For the same compound, in data set [3] (3D7, read-out: IC50 HRPII, 3D7 (CQ sensitive)), the concentration for half-maximal inhibition (IC50) stood at 6.9 ± 0.9 nM. For the same compound, the IC50 in data set [4] (3D7, read-out: IC50 Hypoxanthine, 3D7 (CQ sensitive)) is 7.4 ± 1.2 nM. Moreover, in the data set on P. berghei, NK65 strain (20 mg/kg daily), the Time of survival is given as more than 30 days; the “Percent reduction of parasitemia, day 5” value came out at 100%; the “Percent reduction of parasitemia, day 8” value is 100%; the “Percent reduction of parasitemia, day 10” value was 100%. This compound returned a Suppression of parasitemia in the data set with P. berghei, NK65 strain (CQ 20 mg/kg, day not given) of 100%.
Turning to `NCCNCCNc1ccnc2cc(Cl)ccc12` [MAQ, N^1-(2-aminoethyl)-N^2-(7-chloroquinol-4-yl)ethane-1,2-diamine], the 50% inhibitory concentration (IC50) stood at 320 ± 70 nM in data set [1] (W2, dose that inhibits 50% of blood parasites growth, three or four experiments, read-out: IC50 Hypoxanthine, W2 (CQ resistant)); 260 ± 20 nM in data set [2] (W2, dose that inhibits 50% of blood parasites growth, three or four experiments, read-out: IC50 HRPII, W2 (CQ resistant)); 26 ± 2 nM in data set [3] (3D7, dose that inhibits 50% of blood parasites growth, three or four experiments, read-out: IC50 HRPII, 3D7 (CQ sensitive)); 66 ± 5 nM in data set [4] (3D7, dose that inhibits 50% of blood parasites growth, three or four experiments, read-out: IC50 Hypoxanthine, 3D7 (CQ sensitive)). Also, the “Selectivity index HepG2” value in data set [5] (MDL50/IC50) is recorded as 1038. Besides, the “MDL50 HepG2” value in data set [5] (human, 24 h) was 270 ± 10 µM. The “Selectivity index BGM” value in data set [6] (MDL50/IC50) is 384. Also, the “MDL50 BGM” value in data set [6] (monkey, 24 h) amounted to 100 ± 0.0 µM. Moreover, the “Inhibition of hemozoin formation in vitro” value with hemozoin formation is reported as “more evident with MAQ than with BAQ or CQ”. For the same compound, the “Activity in vivo (class)” value is on record as “active” in the data set on P. berghei, NK65 strain (25 mg/kg); “active” in the data set on P. berghei, NK65 strain (50 mg/kg, days 5, 8 and 10 post-infection). In addition, the Time of survival was found to be 24 ± 1 days with P. berghei, NK65 strain (25 mg/kg daily, oral gavage) and 25 ± 1 days in the data set with P. berghei, NK65 strain (50 mg/kg daily, oral gavage). Further, the “Percent reduction of parasitemia, day 5” value was determined as 91% in the data set on P. berghei, NK65 strain (25 mg/kg daily, oral gavage) and 95% in the data set on P. berghei, NK65 strain (50 mg/kg daily, oral gavage). Besides, the “Percent reduction of parasitemia, day 8” value with P. berghei, NK65 strain (25 mg/kg daily, oral gavage) is listed as 61%; in the data set on P. berghei, NK65 strain (50 mg/kg daily, oral gavage), 71%. In addition, the “Percent reduction of parasitemia, day 10” value with P. berghei, NK65 strain (25 mg/kg daily, oral gavage) is recorded as 70%; with P. berghei, NK65 strain (50 mg/kg daily, oral gavage), 76%.

The values above are taken from publication PMC3359361, “Antimalarial Activity and Mechanisms of Action of Two Novel 4-Aminoquinolines against Chloroquine-Resistant Parasites” (PLoS ONE, 2012).
